These results are taken from patent publication US20260201008A1, “SECRETIN-DERIVED GLP1R SELECTIVE AGONISTS” (GUBRA A/S, priority 2023, published 2026).

Like-named read-outs stand apart in the source and are kept apart here. Square brackets hold non-standard residues; d marks the D form. Peptide text beside a SMILES is read from it. Aib = CC(C)(N)C(=O)O

Test [1] deals with SCTR (Homo sapiens, UniProt P47872). Kind of test: hSCTR potency, cAMP accumulation in CHO-K1 cells stably overexpressing hSCTR. The format is cell-based. The arrangement: alternatively Euroscreen ES-712-AF; FAST-0161L; host or cells: CHO-K1. Conditions: read-out: pEC50 hSCTR (converted). The text has this: (§1) Crude library peptides are screened in 10-fold serial dilutions of 5 concentrations, n=1 time. Tip change is done for the first two serial dilutions. Compound starting concentration (top) will be adjusted throughout the study if needed.
(§2) Purified peptides are screened in 3-fold serial dilutions of 11 concentrations, n=2 times. Tip change is done for all serial dilutions. Compound starting concentration (top) will be adjusted throughout the study. If the top concentration is adjusted or a 5-fold difference in calculated EC50 values is observed, n is increased by 1. EC50 values were calculated by nonlinear regression using sigmoid concentration-response with variable slope.
(§3) Frozen division arrested CHO-K1 cells stably overexpressing the hSCTR were obtained from PerkinElmer (ES-712-AF). Alternatively, a CHO-K1 cell line stably overexpressing the hSCTR was obtained from Euroscreen (FAST-0161L), expanded, aliquoted and frozen. An aliquot was thawed and plated in DPBS with 0.05% casein and 0.5 mM IBMX as 2000 cells/well in a 384-well format. The cells were then immediately stimulated for 30 min at room temperature with graded doses of test compound using human secretin (synthesized at Gubra) as a positive control. cAMP accumulation was measured using a Cisbio assay for Gs coupled receptors (cat. no. 62AM4PEC), where the assay reagents were added as per the manufacturer's instructions and time-resolved fluorescence energy transfer recorded after one hour on a CLARIOstar (BMG Labtech) plate reader.

Test [2] has as its target GLP1R (Homo sapiens, UniProt P43220). The experiment in a line: hGLP1R potency, cAMP accumulation in CHO-K1 cells stably overexpressing hGLP1R. The test is classed as cell-based. The arrangement: host or cells: CHO-K1. The settings on record: for Selectivity: SCTR EC50/GLP1R EC50 ratio; for EC50: read-out: pEC50 hGLPR1 (converted).
From the text: as §1, §2
as §3, with “A” for “Frozen division arrested CHO-K1 cells stably overexpressing the hSCTR were obtained from PerkinElmer (ES-712-AF). Alternatively, a”, “hGLP1R” for “hSCTR”, “(FAST-0145L),” for “(FAST-0161L),”, “GLP-1(7-36)” for “secretin”
(cAMP levels reflect the balance of adenylyl cyclase and phosphodiesterase activity.)

Where [3] appears, read: Table 3, position X^10 variants of GUB06-046.
[4] abbreviates: Table 4, position X12 variants of GUB06-046.

Sequence of SCTR (P47872 23-440): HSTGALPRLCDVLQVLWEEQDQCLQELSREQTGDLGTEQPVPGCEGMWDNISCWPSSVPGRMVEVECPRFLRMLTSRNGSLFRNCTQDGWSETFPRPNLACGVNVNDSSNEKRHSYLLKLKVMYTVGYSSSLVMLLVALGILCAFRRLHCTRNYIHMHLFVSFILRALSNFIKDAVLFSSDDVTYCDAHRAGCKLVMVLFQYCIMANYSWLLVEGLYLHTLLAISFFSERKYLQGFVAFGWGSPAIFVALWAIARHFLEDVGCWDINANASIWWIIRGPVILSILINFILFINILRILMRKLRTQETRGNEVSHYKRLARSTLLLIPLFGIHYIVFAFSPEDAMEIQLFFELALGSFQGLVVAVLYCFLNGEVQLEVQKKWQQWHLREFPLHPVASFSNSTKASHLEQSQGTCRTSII
Sequence of GLP1R (P43220 24-463): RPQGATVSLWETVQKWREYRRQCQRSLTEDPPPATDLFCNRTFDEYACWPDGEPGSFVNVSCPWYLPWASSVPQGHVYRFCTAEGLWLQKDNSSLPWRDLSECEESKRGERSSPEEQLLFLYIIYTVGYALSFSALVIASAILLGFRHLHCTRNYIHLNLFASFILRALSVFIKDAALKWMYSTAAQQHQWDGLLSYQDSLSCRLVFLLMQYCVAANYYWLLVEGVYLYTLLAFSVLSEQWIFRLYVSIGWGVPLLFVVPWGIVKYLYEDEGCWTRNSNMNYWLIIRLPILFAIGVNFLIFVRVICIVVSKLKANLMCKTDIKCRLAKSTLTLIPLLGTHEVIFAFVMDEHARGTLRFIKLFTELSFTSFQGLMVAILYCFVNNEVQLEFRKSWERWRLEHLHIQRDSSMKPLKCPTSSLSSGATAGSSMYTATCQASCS

Take `CC[C@H](C)[C@H](NC(=O)[C@H](Cc1ccccc1)NC(=O)[C@H](CCCNC(=N)N)NC(=O)[C@H](CCC(N)=O)NC(=O)[C@H](CC(C)C)NC(=O)[C@H](C)NC(=O)[C@H](C)NC(=O)CNC(=O)[C@H](CCC(=O)O)NC(=O)[C@H](CC(C)C)NC(=O)[C@H](CC(C)C)NC(=O)[C@H](CCCNC(=N)N)NC(=O)[C@H](CO)NC(=O)[C@H](CC(C)C)NC(=O)[C@H](CC(=O)O)NC(=O)[C@H](CO)NC(=O)[C@@H](NC(=O)[C@H](Cc1ccccc1)NC(=O)[C@@H](NC(=O)CNC(=O)[C@H](CCC(=O)O)NC(=O)C(C)(C)NC(=O)[C@@H](N)Cc1c[nH]cn1)[C@@H](C)O)[C@@H](C)O)C(=O)N[C@@H](CCC(N)=O)C(=O)N[C@@H](Cc1c[nH]c2ccccc12)C(=O)N[C@@H](CC(C)C)C(=O)N[C@H](C(N)=O)C(C)C` [compound 216] (H-H[Aib]EGTFTSDLSRLLEGAALQRFIQWLV-NH2): the EC50 in test [1] (setting [3]) is 0.501 nM; in test [1] (setting [4]), 0.501 nM; in test [2] (setting [3]) it was 0.0398 nM; in test [2] (setting [4]), 0.0398 nM. The Selectivity in test [2] (setting [3]) and in test [2] (setting [4]) was 13 in each case.
On to `CC[C@H](C)[C@H](NC(=O)[C@H](Cc1ccccc1)NC(=O)[C@H](CCCNC(=N)N)NC(=O)[C@H](CCC(N)=O)NC(=O)[C@H](CC(C)C)NC(=O)[C@H](C)NC(=O)[C@H](C)NC(=O)CNC(=O)[C@H](CCC(=O)O)NC(=O)[C@H](CC(C)C)NC(=O)[C@H](CC(C)C)NC(=O)C(C)(C)NC(=O)[C@H](CO)NC(=O)[C@H](CC(C)C)NC(=O)[C@H](CC(=O)O)NC(=O)[C@H](CO)NC(=O)[C@@H](NC(=O)[C@H](Cc1ccccc1)NC(=O)[C@@H](NC(=O)CNC(=O)[C@H](CCC(=O)O)NC(=O)C(C)(C)NC(=O)[C@@H](N)Cc1c[nH]cn1)[C@@H](C)O)[C@@H](C)O)C(=O)N[C@@H](CCC(N)=O)C(=O)N[C@@H](Cc1c[nH]c2ccccc12)C(=O)N[C@@H](CC(C)C)C(=O)N[C@H](C(N)=O)C(C)C` [compound 223] (H-H[Aib]EGTFTSDLS[Aib]LLEGAALQRFIQWLV-NH2), for which the EC50 in test [1] (setting [4]) is 5.01 nM. In test [2] (setting [4]), the Selectivity was found to be 78 and the EC50 was 0.0631 nM.
In the same order, the values of `CC[C@H](C)[C@H](NC(=O)[C@H](Cc1ccccc1)NC(=O)[C@H](CCCNC(=N)N)NC(=O)[C@H](CCC(N)=O)NC(=O)[C@H](CC(C)C)NC(=O)[C@H](C)NC(=O)[C@H](C)NC(=O)CNC(=O)[C@H](CCC(=O)O)NC(=O)[C@H](CC(C)C)NC(=O)[C@H](CC(C)C)NC(=O)[C@H](CCC(=O)O)NC(=O)[C@H](CO)NC(=O)[C@H](CC(C)C)NC(=O)[C@H](CC(=O)O)NC(=O)[C@H](CO)NC(=O)[C@@H](NC(=O)[C@H](Cc1ccccc1)NC(=O)[C@@H](NC(=O)CNC(=O)[C@H](CCC(=O)O)NC(=O)C(C)(C)NC(=O)[C@@H](N)Cc1c[nH]cn1)[C@@H](C)O)[C@@H](C)O)C(=O)N[C@@H](CCC(N)=O)C(=O)N[C@@H](Cc1c[nH]c2ccccc12)C(=O)N[C@@H](CC(C)C)C(=O)N[C@H](C(N)=O)C(C)C` [compound 224] (H-H[Aib]EGTFTSDLSELLEGAALQRFIQWLV-NH2) are 1.58 nM, 120 and 0.0126 nM.
With `CC[C@H](C)[C@H](NC(=O)[C@H](Cc1ccccc1)NC(=O)[C@H](CCCNC(=N)N)NC(=O)[C@H](CCC(N)=O)NC(=O)[C@H](CC(C)C)NC(=O)[C@H](C)NC(=O)[C@H](C)NC(=O)CNC(=O)[C@H](CCC(=O)O)NC(=O)[C@H](CC(C)C)NC(=O)[C@H](CC(C)C)NC(=O)[C@H](Cc1ccccc1)NC(=O)[C@H](CO)NC(=O)[C@H](CC(C)C)NC(=O)[C@H](CC(=O)O)NC(=O)[C@H](CO)NC(=O)[C@@H](NC(=O)[C@H](Cc1ccccc1)NC(=O)[C@@H](NC(=O)CNC(=O)[C@H](CCC(=O)O)NC(=O)C(C)(C)NC(=O)[C@@H](N)Cc1c[nH]cn1)[C@@H](C)O)[C@@H](C)O)C(=O)N[C@@H](CCC(N)=O)C(=O)N[C@@H](Cc1c[nH]c2ccccc12)C(=O)N[C@@H](CC(C)C)C(=O)N[C@H](C(N)=O)C(C)C` [compound 225] (H-H[Aib]EGTFTSDLSFLLEGAALQRFIQWLV-NH2), the EC50 in test [1] (setting [4]) is 7.94 nM. In addition, in test [2] (setting [4]), the Selectivity is listed as 328 and the EC50 is 0.0251 nM.
As for `CC[C@H](C)[C@H](NC(=O)[C@H](Cc1ccccc1)NC(=O)[C@H](CCCNC(=N)N)NC(=O)[C@H](CCC(N)=O)NC(=O)[C@H](CC(C)C)NC(=O)[C@H](C)NC(=O)[C@H](C)NC(=O)CNC(=O)[C@H](CCC(=O)O)NC(=O)[C@H](CC(C)C)NC(=O)[C@H](CC(C)C)NC(=O)CNC(=O)[C@H](CO)NC(=O)[C@H](CC(C)C)NC(=O)[C@H](CC(=O)O)NC(=O)[C@H](CO)NC(=O)[C@@H](NC(=O)[C@H](Cc1ccccc1)NC(=O)[C@@H](NC(=O)CNC(=O)[C@H](CCC(=O)O)NC(=O)C(C)(C)NC(=O)[C@@H](N)Cc1c[nH]cn1)[C@@H](C)O)[C@@H](C)O)C(=O)N[C@@H](CCC(N)=O)C(=O)N[C@@H](Cc1c[nH]c2ccccc12)C(=O)N[C@@H](CC(C)C)C(=O)N[C@H](C(N)=O)C(C)C` [compound 226] (H-H[Aib]EGTFTSDLSGLLEGAALQRFIQWLV-NH2), the EC50 in test [1] (setting [4]) was 5.01 nM. Further, in test [2] (setting [4]), the Selectivity came out at 145 and the EC50 is 0.0316 nM.
`CC[C@H](C)[C@H](NC(=O)[C@H](Cc1ccccc1)NC(=O)[C@H](CCCNC(=N)N)NC(=O)[C@H](CCC(N)=O)NC(=O)[C@H](CC(C)C)NC(=O)[C@H](C)NC(=O)[C@H](C)NC(=O)CNC(=O)[C@H](CCC(=O)O)NC(=O)[C@H](CC(C)C)NC(=O)[C@H](CC(C)C)NC(=O)[C@@H](NC(=O)[C@H](CO)NC(=O)[C@H](CC(C)C)NC(=O)[C@H](CC(=O)O)NC(=O)[C@H](CO)NC(=O)[C@@H](NC(=O)[C@H](Cc1ccccc1)NC(=O)[C@@H](NC(=O)CNC(=O)[C@H](CCC(=O)O)NC(=O)C(C)(C)NC(=O)[C@@H](N)Cc1c[nH]cn1)[C@@H](C)O)[C@@H](C)O)C(C)C)C(=O)N[C@@H](CCC(N)=O)C(=O)N[C@@H](Cc1c[nH]c2ccccc12)C(=O)N[C@@H](CC(C)C)C(=O)N[C@H](C(N)=O)C(C)C` [compound 227] (H-H[Aib]EGTFTSDLSVLLEGAALQRFIQWLV-NH2): the EC50 in test [1] (setting [4]) is 1.26 nM. Also, in test [2] (setting [4]), the Selectivity was 43 and the EC50 is 0.0316 nM.
Taken in the same sequence, the figures for `CC[C@H](C)[C@H](NC(=O)[C@H](Cc1ccccc1)NC(=O)[C@H](CCCNC(=N)N)NC(=O)[C@H](CCC(N)=O)NC(=O)[C@H](CC(C)C)NC(=O)[C@H](C)NC(=O)[C@H](C)NC(=O)CNC(=O)[C@H](CCC(=O)O)NC(=O)[C@H](CC(C)C)NC(=O)[C@H](CC(C)C)NC(=O)[C@H](Cc1c[nH]c2ccccc12)NC(=O)[C@H](CO)NC(=O)[C@H](CC(C)C)NC(=O)[C@H](CC(=O)O)NC(=O)[C@H](CO)NC(=O)[C@@H](NC(=O)[C@H](Cc1ccccc1)NC(=O)[C@@H](NC(=O)CNC(=O)[C@H](CCC(=O)O)NC(=O)C(C)(C)NC(=O)[C@@H](N)Cc1c[nH]cn1)[C@@H](C)O)[C@@H](C)O)C(=O)N[C@@H](CCC(N)=O)C(=O)N[C@@H](Cc1c[nH]c2ccccc12)C(=O)N[C@@H](CC(C)C)C(=O)N[C@H](C(N)=O)C(C)C` [compound 228] (H-H[Aib]EGTFTSDLSWLLEGAALQRFIQWLV-NH2) were 0.794 nM, 53 and 0.0158 nM.
In the same order, the values of `CC[C@H](C)[C@H](NC(=O)[C@H](Cc1ccccc1)NC(=O)[C@H](CCCNC(=N)N)NC(=O)[C@H](CCC(N)=O)NC(=O)[C@H](CC(C)C)NC(=O)[C@H](C)NC(=O)[C@H](C)NC(=O)CNC(=O)[C@H](CCC(=O)O)NC(=O)[C@H](CC(C)C)NC(=O)[C@H](CC(C)C)NC(=O)[C@H](Cc1ccc(O)cc1)NC(=O)[C@H](CO)NC(=O)[C@H](CC(C)C)NC(=O)[C@H](CC(=O)O)NC(=O)[C@H](CO)NC(=O)[C@@H](NC(=O)[C@H](Cc1ccccc1)NC(=O)[C@@H](NC(=O)CNC(=O)[C@H](CCC(=O)O)NC(=O)C(C)(C)NC(=O)[C@@H](N)Cc1c[nH]cn1)[C@@H](C)O)[C@@H](C)O)C(=O)N[C@@H](CCC(N)=O)C(=O)N[C@@H](Cc1c[nH]c2ccccc12)C(=O)N[C@@H](CC(C)C)C(=O)N[C@H](C(N)=O)C(C)C` [compound 229] (H-H[Aib]EGTFTSDLSYLLEGAALQRFIQWLV-NH2) are 10 nM, 699 and 0.0158 nM.
